From PubChem BioAssay (NCI)
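Each compound was tested at five concentrations against cells in 96-well plates for 48 hours. The concentration for 50% growth inhibition is given as GI50. TGI denotes the concentration required for complete inhibition of growth.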

What was measured:
Test in all cases: DTP human tumour cell line panel, 48 h
[1] = tested on: OVCAR-8 ovarian
[2] = tested on: CCRF-CEM leukemia
[3] = tested on: SK-MEL-2 melanoma
[4] = tested on: CAKI-1 renal
[5] = tested on: SK-MEL-28 melanoma
[6] = tested on: KM12 colon
[7] = tested on: OVCAR-3 ovarian
[8] = tested on: NCI-H226 lung
[9] = tested on: A498 renal
[10] = tested on: MCF7 breast

Row | Compound | TGI [1] [µM] | TGI [2] [µM] | TGI [3] [µM] | TGI [4] [µM] | TGI [5] [µM] | TGI [6] [µM] | TGI [7] [µM] | TGI [8] [µM] | TGI [9] [µM] | GI50 [1] [µM] | GI50 [2] [µM] | GI50 [3] [µM] | GI50 [4] [µM] | GI50 [6] [µM] | GI50 [10] [µM] | TGI [10] [µM] | GI50 [7] [µM] | GI50 [9] [µM] | GI50 [5] [µM] | GI50 [8] [µM]
1 | CO[C@@H]1C=C[C@@]23c4cc5c(cc4CN(C[C@@H]2O)[C@H]3C1)OCO5 | > 100 | 47.7 | 49.2 | 49.1 | > 100 | > 100 | > 100 | > 100 |  |  |  |  |  |  |  |  |  |  |  | 
2 | Cc1cccc(-n2c(N)c(-c3nc4ccccc4[nH]3)sc2=S)c1 | 72 | > 100 | 62.3 | 90.5 | > 100 | 52.2 | 62.1 | 73.9 | > 100 |  |  |  |  |  |  |  |  |  |  | 
3 | N/N=C1\C(=O)N(Cc2ccccc2)C(=O)C1C(=O)NCc1ccccc1 (stereo not given) | > 100 | > 100 | > 100 |  | > 100 | > 100 | > 100 |  | > 100 |  |  |  |  |  |  |  |  |  |  | 
4 | COC(=O)c1ccccc1N(C(=O)c1ccccc1)c1ccccc1C | > 100 | 83.5 | > 100 | > 100 | > 100 | > 100 | > 100 | > 100 | 80.1 |  |  |  |  |  |  |  |  |  |  | 
5 | Cc1c(O)c(N=Nc2nc3ccccc3s2)c2ccccc2c1O | > 50 | > 50 | 43.2 | > 50 |  | > 50 | > 50 |  |  | 19.7 | > 50 | 17.3 | 21.1 | 23.2 | > 50 | > 50 | 12.3 |  |  | 
6 | O=C1C(=C(C(F)(F)Cl)C(F)(F)Cl)C2CCC1C2 (stereo not given) | 4.24 | > 10 | 4.21 |  | 3.96 | > 8.65 | > 6.36 | > 9.06 | > 10 |  |  |  |  |  |  | > 6.52 |  |  |  | 
7 | CCCc1n(Cc2ccc3ccccc3c2)cc[n+]1Cc1ccc2ccccc2c1 |  | 4.93 |  |  | 2.52 | 2.38 |  | 3.92 | 3.78 |  | 1.48 |  |  | 1.01 | 1.11 | 2.77 |  | 0.938 | 1.06 | 1.31
8 | COc1cc(-c2nccc3cc(OC)c(OC)cc23)ccc1O | > 100 | > 100 | > 100 | > 100 | > 100 | > 100 | > 100 | > 100 |  |  |  |  |  |  |  |  |  |  |  | 
9 | COc1ccc(/C(=N\NC(=O)NN)C(c2ccc(OC)cc2)C2(O)C(=O)Nc3c(Cl)cc(Cl)cc32)cc1 (stereo not given) | > 100 | > 100 | > 100 |  | > 100 | > 100 | > 100 | > 100 |  |  |  |  |  |  |  |  |  |  |  | 
10 | N#CC12CCC1C1CCCCC12N1CCSCC1 (stereo not given) | > 100 | > 100 | > 100 | > 100 | > 100 | > 100 | > 100 |  | > 100 |  |  |  |  |  |  |  |  |  |  | 
11 | Cc1n[nH]c(=S)n(C)c1=S | > 100 | > 100 | > 100 |  | > 100 |  | > 100 | > 100 | > 100 |  |  |  |  |  |  |  |  |  |  | 
12 | N#CC(C(=O)C(=O)Nc1ccccc1)c1ccccc1 (stereo not given) |  | > 100 | > 100 | > 100 | > 100 | > 100 | > 100 | > 100 |  |  |  |  |  |  |  |  |  |  |  | 
13 | O=S(=O)(CCN1CCOCC1)Nc1cc(-c2ccc3ncnc(Nc4ccc(F)c(Cl)c4)c3c2)cnc1Cl | 31.2 | > 100 |  |  | 8.62 | 24 | 3.91 | 26.4 |  | 1.67 | 0.455 |  |  | 2.64 | 0.335 | 22.9 | 0.391 |  | 0.297 | 0.584
14 | Cc1ccc(-c2nc3ccccc3c(=O)n2NCC2(O)OCC(O)C(O)C2O)cc1 (stereo not given) | > 100 | > 100 | > 100 | > 100 | > 100 | > 100 | > 100 |  | > 100 |  |  |  |  |  |  |  |  |  |  | 
15 | CCOC(=O)C(=O)Nc1nc2c(OCC)cccc2s1 | > 100 |  | > 100 | > 100 | > 100 | > 100 | > 100 | > 100 | > 100 |  |  |  |  |  |  |  |  |  |  | 
16 | C=C(CO)CC(O)c1cc(OC)ccc1OC (stereo not given) | > 100 | > 100 | > 100 | > 100 | > 100 | > 100 | > 100 | > 100 |  |  |  |  |  |  |  |  |  |  |  | 
17 | N#Cc1ccc(Cc2ccccn2)cc1Cl | > 100 | > 100 | > 100 | > 100 | > 100 | > 100 |  | > 100 |  |  |  |  |  |  |  |  |  |  |  | 
18 | COC(=O)C1=C(O)[C@H](C(=O)OC)C2(O)C(C(=O)OC)[C@H](c3ccc(OC(=O)C(C)c4ccccc4)cc3)C[C@@H]1[C@@H]2C(=O)OC (stereo not given in full) | > 50 |  | > 50 | > 50 | > 50 | 31.4 | 21.4 |  |  | 15 |  | 31 | 15.2 | 10.6 | 33.7 | > 50 | 9.69 |  | 26.7 | 
19 | CCC[CH2][Sn]([CH2]CCC)([O]c1cccc2cccnc12)[O]c1cccc2cccnc12 | 0.945 | 0.313 |  | 0.718 | 0.332 |  | 0.324 |  | 3.31 | 0.263 | 0.0317 |  | 0.2 |  |  |  | 0.167 | 1.75 | 0.146 | 
20 | O=C(Nc1cccc2c1C(=O)c1c(NC(=O)c3ccccc3)ccc(Nc3cccc4c3C(=O)c3ccccc3C4=O)c1C2=O)c1ccccc1 | > 100 | > 100 | > 100 | > 100 | > 100 | > 100 | > 100 | > 100 | > 100 |  |  |  |  |  |  |  |  |  |  | 
21 | O=c1[nH]c2ccccc2c2nc3ccccc3n12 | > 100 | > 100 |  | 93.7 |  | > 100 | > 100 |  | > 100 |  |  |  |  |  |  | > 100 |  |  |  | 
22 | C=C1C(=O)O[C@H]2[C@H]1CC/C(COC(=O)NCc1c[nH]c3ccccc13)=C\CC[C@@]1(C)O[C@@H]21 | 6.99 | 8.27 | 24.5 |  | 8.99 | 30.7 | 4.57 | 5.55 | 23.2 | 2.2 | 1.48 | 11.1 |  | 13.8 | 1.5 | 4.39 | 1.71 | 11.1 | 2.65 | 2
